Data reported in US20260272895A1, “METHODS AND KITS FOR DELIVERY OF COMPOUNDS INTO CELLS” (Yale University, priority 2023, published 2026).

Key:
SLCO1A2 = molecular target: T1, SLCO1A2 (Homo sapiens, UniProt P46721); assay: Compound uptake in HEK293 cells transfected with SLCO1A2; assay type: cell-based; design: FLAG
T1 sequence (P46721 1-670): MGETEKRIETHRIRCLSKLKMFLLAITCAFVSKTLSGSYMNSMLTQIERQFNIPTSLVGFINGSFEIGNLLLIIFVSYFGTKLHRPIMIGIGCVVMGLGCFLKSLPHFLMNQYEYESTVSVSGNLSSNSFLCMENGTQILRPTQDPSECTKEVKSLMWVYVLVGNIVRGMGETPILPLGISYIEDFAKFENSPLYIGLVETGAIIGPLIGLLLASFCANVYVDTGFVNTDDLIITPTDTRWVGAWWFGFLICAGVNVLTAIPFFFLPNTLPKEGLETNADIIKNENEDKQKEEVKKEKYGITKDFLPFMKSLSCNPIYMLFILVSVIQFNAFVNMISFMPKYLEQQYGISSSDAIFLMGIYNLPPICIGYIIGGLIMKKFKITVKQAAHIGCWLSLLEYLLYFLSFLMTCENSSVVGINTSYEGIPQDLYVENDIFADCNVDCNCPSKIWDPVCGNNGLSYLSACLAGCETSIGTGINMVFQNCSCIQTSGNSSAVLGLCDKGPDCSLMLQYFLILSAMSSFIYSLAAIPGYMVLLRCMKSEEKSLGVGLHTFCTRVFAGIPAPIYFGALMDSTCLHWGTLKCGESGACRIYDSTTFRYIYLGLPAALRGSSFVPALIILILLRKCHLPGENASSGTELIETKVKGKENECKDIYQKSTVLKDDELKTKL
Method: (§1) HEK293 cells are cultured and seeded at ~60% confluency in 24-well plates and are transiently transfected with 250 ng of a candidate transporter and 1 μL transfection reagent (JetPRIME). After 2 days, cells are washed and novel fluorescent probes at different concentrations are added to the transport medium and incubated at 37° C., for at least 30 minutes. To terminate the transport, cells are washed with PBS and fixed with 4% paraformaldehyde. The colocalization of probe uptake and cells expressing the transporters is investigated by immunostaining the transporter which has a fused FLAG tag, using anti-FLAG 488. Before confocal imaging, nuclei are labeled with Hoechst 33342 and cells are mounted and imaged on a Leica SP8 confocal microscope.
(§2) For in vitro experiments, HEK293 cells were cultured and seeded in 24-well plates, reaching approximately 60% confluency. For transient transfection, 250 ng of a candidate transporter plasmid and 1 μL of transfection reagent (JetPRIME) were added to the cells. After a 2-day incubation period, the cells were washed, and novel fluorescent probes were introduced into the transport medium at various concentrations. The cells were then incubated at 37° C., for a minimum of 30 minutes to allow for uptake. To stop the transport process, the cells were washed with PBS and fixed using 4% paraformaldehyde. Immunostaining of the transporter, which was fused with a FLAG tag, was performed using an anti-FLAG 488 antibody. Before confocal imaging, the cell nuclei were labeled with Hoechst 33342. Finally, the cells were mounted and imaged using a Leica SP8 confocal microscope.

Slco1a4 = molecular target: T2, Slco1a4 (Mus musculus, UniProt Q9EP96); assay: Compound uptake in HEK293 cells transfected with Slco1a4; assay type: cell-based; design: FLAG; expressed in transfected cells
T2 sequence (Q9EP96 1-670): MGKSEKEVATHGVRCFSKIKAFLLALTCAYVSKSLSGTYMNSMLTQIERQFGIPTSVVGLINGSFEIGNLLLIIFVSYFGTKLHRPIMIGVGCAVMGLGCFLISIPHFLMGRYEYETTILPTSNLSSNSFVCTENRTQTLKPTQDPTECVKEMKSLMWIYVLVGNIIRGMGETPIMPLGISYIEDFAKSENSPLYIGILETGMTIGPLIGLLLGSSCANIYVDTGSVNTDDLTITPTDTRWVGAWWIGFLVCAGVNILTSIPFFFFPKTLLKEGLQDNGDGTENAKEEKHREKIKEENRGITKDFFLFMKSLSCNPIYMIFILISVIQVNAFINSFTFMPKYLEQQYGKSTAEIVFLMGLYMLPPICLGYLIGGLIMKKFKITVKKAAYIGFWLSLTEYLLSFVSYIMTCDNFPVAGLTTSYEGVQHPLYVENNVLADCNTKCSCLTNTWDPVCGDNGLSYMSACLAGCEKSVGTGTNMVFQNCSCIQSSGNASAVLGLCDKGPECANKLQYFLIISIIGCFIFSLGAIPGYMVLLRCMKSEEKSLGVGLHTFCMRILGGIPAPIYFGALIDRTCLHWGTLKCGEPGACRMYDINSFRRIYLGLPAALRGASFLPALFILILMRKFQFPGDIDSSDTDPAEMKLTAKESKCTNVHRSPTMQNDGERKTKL
Method: as §1, §2

Compound	uptake in SLCO1A2 transfected HEK293 cells (SLCO1A2; concentration not given)	uptake in Slco1a4 transfected HEK293 cells (Slco1a4; concentration not given)	uptake in SLCO1A2 transfected HEK293 cells (SLCO1A2; 10 μM)	uptake in Slco1a4 transfected HEK293 cells (Slco1a4; 10 μM)
O=S(=O)([O-])c1cc(S(=O)(=O)O)ccc1C1=c2cc3c4c(c2Oc2cc(Br)ccc21)CCC[N+]=4CCC3 [Compound 1, 2-(12-bromo-1,2,3,5,6,7-hexahydrochromeno[2,3-f]pyrido[3,2,1-ij]quinolin-4-ium-9-yl)-5-sulfobenzenesulfonate]	only those cells expressing the carrier SLCO1A2 (as evidenced by anti-FLAG labeling-green) take up compound 1	only those cells expressing SLCO1A4 (as evidenced by anti-FLAG labeling-green) take up compound 1		
COc1cc2c(c(OC)c1OC)-c1ccc(OC)c(=O)cc1C(NS(=O)(=O)c1ccc(-c3c4ccc(N(C)C)cc4[o+]c4cc(N(C)C)ccc34)c(S(=O)(=O)[O-])c1)CC2 (stereo not shown) [Compound 47, 2-(3,6-bis(dimethylamino)xanthylium-9-yl)-5-(N-(1,2,3,10-tetramethoxy-9-oxo-5,6,7,9-tetrahydrobenzo[a]heptalen-7-yl)sulfamoyl)benzenesulfonate]			robust and selective uptake	robust and selective uptake
